According to ChEMBL document CHEMBL1649521, “Influence of the cytochrome P450 2B6 genotype on population pharmacokinetics of efavirenz in human immunodeficiency virus patients” (Antimicrob Agents Chemother, 2009):

Tests used:
[1] = Apparent oral clearance in patient with HIV infection at 600 mg/kg, […] QD; type: ADME, organism-based; set-up: dose 600 mg/kg, route oral; conditions: human, in vivo
[2] = Apparent oral volume of distribution in patient with HIV infection at 600 mg/kg QD; type: ADME, organism-based; set-up: dose 600 mg/kg, route oral; conditions: human, in vivo, read-out: Vc/F

SMILES: O=C1Nc2ccc(Cl)cc2[C@@](C#CC2CC2)(C(F)(F)F)O1 [EFAVIRENZ]
- CL/F [1]: 154 mL/min
- Vd/F [2]: 295 L
